Assay results from US7943774B2 (priority 2008, dated 2011).
Like-named read-outs stand apart in the source and are kept apart here.

What was measured:
log P (pH2.3) = format: physicochemical
Phytophthora infestans = assay: whole plant or invertebrate; format: in vivo; conditions: in Solanum lycopersicum, 168 h, read-out: efficacy
[1] = method [b]: LC-MS, acidic range, pH 2.7, 0.1% aqueous formic acid and acetonitrile
[2] = method [c]: LC-MS, neutral range, pH 7.8, 0.001 molar aqueous ammonium bicarbonate and acetonitrile
[3] = method [b]: LC-MS, acidic range, pH 2.7, 0.1% aqueous formic acid and acetonitrile, HPLC on reversed-phase C 18
[4] = method [c]: LC-MS, neutral range, pH 7.8, 0.001 molar aqueous ammonium bicarbonate solution and acetonitrile, HPLC on reversed-phase C 18

| SMILES | log p (log P (pH2.3); [1]) | log p (log P (pH2.3); [3]) | also measured |
| --- | --- | --- | --- |
| Cc1cc(C(F)(F)F)nn1CC(=O)N1CCC(c2nc(/C=C\c3cccc4ccccc34)cs2)CC1 [Example I-2, 2-[5-Methyl-3-(trifluoromethyl)-1H-pyrazol-1-yl]-1-(4-{4-[(Z)-2-(naphthalen-1-yl)ethenyl]-1,3-thiazol-2-yl}piperidin-1-yl)ethanone] |  |  | chromatographic logP (log P (pH2.3); reversed-phase HPLC column (C18), method [b]: LC-MS, acidic range, pH 2.7, 0.1% aqueous formic acid and acetonitrile): 4.52; pest or weed control at 500 ppm (Phytophthora infestans): ≥ 70% |
| Cc1cc(C(F)(F)F)nn1CC(=O)N1CCC(c2nc(C#Cc3ccccc3Cl)cs2)CC1 [Example I-101] | 4.12^[b] |  |  |
| Cc1cc(C(F)(F)F)nn1CC(=O)N1CCC(c2nc(C#Cc3ccc(Cl)cc3)cs2)CC1 [Example I-102] | 4.37^[b] |  |  |
| COc1ccc(C#Cc2csc(C3CCN(C(=O)Cn4nc(C(F)(F)F)cc4C)CC3)n2)c(OC)c1 [Example I-104] | 3.67^[b] |  |  |
| Cc1cc(C(F)(F)F)nn1CC(=O)N1CCC(c2nc(C#Cc3ccc(Cl)cc3Cl)cs2)CC1 [Example I-105] | 4.72^[b] |  |  |
| COc1ccc(OC)c(C#Cc2csc(C3CCN(C(=O)Cn4nc(C(F)(F)F)cc4C)CC3)n2)c1 [Example I-106] | 3.65^[b] |  |  |
| CCc1cc(CC)n(CC(=O)N2CCC(c3nc(CCc4cccc5ccccc45)cs3)CC2)n1 [Example I-107] | 4.04^[b] |  |  |
| CCc1cc(C(F)(F)F)nn1CC(=O)N1CCC(c2nc(CCc3cccc4ccccc34)cs2)CC1 [Example I-108] | 4.65^[b] |  |  |
| O=C(Cn1nc(C(F)F)cc1C(F)F)N1CCC(c2nc(CCc3cccc4ccccc34)cs2)CC1 [Example I-109] | 4.25^[b] |  |  |
| CC(C)(C)c1cc(C(F)(F)F)n(CC(=O)N2CCC(c3nc(CCc4cccc5ccccc45)cs3)CC2)n1 [Example I-110] | 5.36^[b] |  |  |
| CC(C)(C)c1cc(C(F)(F)F)nn1CC(=O)N1CCC(c2nc(CCc3cccc4ccccc34)cs2)CC1 [Example I-111] | 5.14^[b] |  |  |
| CC(C)(C)c1cc(C(F)(F)C(F)(F)F)n(CC(=O)N2CCC(c3nc(CCc4cccc5ccccc45)cs3)CC2)n1 [Example I-112] | 5.78^[b] |  |  |
| CC(C)(C)c1cc(C(F)(F)C(F)(F)F)nn1CC(=O)N1CCC(c2nc(CCc3cccc4ccccc34)cs2)CC1 [Example I-113] | 5.54^[b] |  |  |
| O=C(Cn1nc(C(F)(F)F)cc1C(F)(F)F)N1CCC(c2nc(C#Cc3cccc4ccccc34)cs2)CC1 [Example I-114] | 5.03^[b] |  |  |
| CCc1cc(CC)n(CC(=O)N2CCC(c3nc(C#Cc4cccc5ccccc45)cs3)CC2)n1 [Example I-115] | 4.2^[b] |  |  |
| CCc1cc(C(F)(F)F)nn1CC(=O)N1CCC(c2nc(C#Cc3cccc4ccccc34)cs2)CC1 [Example I-116] | 4.8^[b] |  |  |
| O=C(Cn1nc(C(F)F)cc1C(F)F)N1CCC(c2nc(C#Cc3cccc4ccccc34)cs2)CC1 [Example I-117] | 4.41^[b] |  |  |
| CC(C)(C)c1cc(C(F)(F)F)n(CC(=O)N2CCC(c3nc(C#Cc4cccc5ccccc45)cs3)CC2)n1 [Example I-118] | 5.48^[b] |  |  |
| CC(C)(C)c1cc(C(F)(F)F)nn1CC(=O)N1CCC(c2nc(C#Cc3cccc4ccccc34)cs2)CC1 [Example I-119] | 5.14^[b] |  |  |
| CC(C)(C)c1cc(C(F)(F)C(F)(F)F)nn1CC(=O)N1CCC(c2nc(C#Cc3cccc4ccccc34)cs2)CC1 [Example I-120] | 5.59^[b] |  |  |
| CC(C)c1cc(C(F)(F)F)n(CC(=O)N2CCC(c3nc(CCc4cccc5ccccc45)cs3)CC2)n1 [Example I-121] | 4.89^[b] |  |  |

| SMILES | log p (log P (pH2.3); [1]) | log p (log P (pH2.3); [3]) | also measured |
| --- | --- | --- | --- |
| CC(C)c1cc(C(F)(F)F)n(CC(=O)N2CCC(c3nc(C#Cc4cccc5ccccc45)cs3)CC2)n1 [Example I-122] | 4.99^[b] |  |  |
| Cc1cc(C(F)(F)F)nn1CC(=O)N1CCC(c2nc(CCc3ccc(Cl)cc3Cl)cs2)CC1 [Example I-123] | 4.74^[b] |  | log p (log P (pH2.3); [2]): 4.77^[c]; |
| O=C(Cc1cc(Br)ccc1Br)N1CCC(c2nc(C#Cc3cccc4ccccc34)cs2)CC1 [Example I-124] | 5.47^[b] |  | log p (log P (pH2.3); [2]): 5.52^[c]; |
| C#Cc1csc(C2CCN(C(=O)Cc3cc(Cl)ccc3Cl)CC2)n1 [Example I-125] | 3.08^[b] |  |  |
| Cc1ccccc1CCc1csc(C2CCN(C(=O)Cn3nc(C(F)(F)F)cc3C)CC2)n1 [Example I-126] | 4.08^[b] |  | log p (log P (pH2.3); [2]): 4.16^[c]; |
| Cc1cc(C(F)(F)F)nn1CC(=O)N1CCC(c2nc(CCc3c(F)cccc3F)cs2)CC1 [Example I-128] | 3.9^[b] |  | log p (log P (pH2.3); [2]): 3.97^[c], |
| Cc1cc(C(F)(F)F)nn1CC(=O)N1CCC(c2nc(CCC3CCCCC3)cs2)CC1 [Example I-132] | 5.01^[b] |  |  |
| Cc1cc(C(F)(F)F)nn1CC(=O)N1CCC(c2nc(CCC3CCCc4ccccc43)cs2)CC1 (centres unmarked) [Example I-133] | 4.95^[b] |  |  |
| O=C(Cn1nc(C(F)(F)F)cc1C(F)(F)F)N1CCC(c2nc(CCC3CCCCC3)cs2)CC1 [Example I-140] |  | 5.76^[b] |  |
| O=C(Cn1nc(C(F)F)cc1C(F)F)N1CCC(c2nc(CCC3CCCCC3)cs2)CC1 [Example I-148] |  | 4.87^[b] |  |
| O=C(Cn1nc(C(F)F)cc1C(F)F)N1CCC(c2nc(CCC3CCCc4ccccc43)cs2)CC1 (centres unmarked) [Example I-149] |  | 4.78^[b] |  |
| Cc1ccc(C)c(CC(=O)N2CCC(c3nc(CCc4ccccc4C)cs3)CC2)c1 [Example I-158] |  | 4.67^[b] | log p (log P (pH2.3); [4]): 4.77^[c]; |
| Cc1ccc(C)c(CC(=O)N2CCC(c3nc(CCc4c(F)cccc4F)cs3)CC2)c1 [Example I-160] |  | 4.48^[b] | log p (log P (pH2.3); [4]): 4.55^[c]; |
| Cc1ccccc1C#Cc1csc(C2CCN(C(=O)Cn3nc(C(F)(F)F)cc3C)CC2)n1 [Example I-206] |  | 4.15^[b] | log p (log P (pH2.3); [4]): 4.15^[c]; |
| Cc1cc(C(F)(F)F)nn1CC(=O)N1CCC(c2nc(C#Cc3ccccc3Br)cs2)CC1 [Example I-207] |  | 4.16^[b] | log p (log P (pH2.3); [4]): 4.19^[c]; |
| Cc1cc(C(F)(F)F)nn1CC(=O)N1CCC(c2nc(C#Cc3c(F)cccc3F)cs2)CC1 [Example I-208] |  | 3.83^[b] | log p (log P (pH2.3); [4]): 3.86^[c]; |
| Cc1cccnc1C#Cc1csc(C2CCN(C(=O)Cn3nc(C(F)(F)F)cc3C)CC2)n1 [Example I-210] |  | 2.72^[b] | log p (log P (pH2.3); [4]): 2.95^[c]; |
| Cc1ccccc1C#Cc1csc(C2CCN(C(=O)Cn3nc(C(F)(F)F)cc3C(F)(F)F)CC2)n1 [Example I-212] |  | 4.73^[b] |  |
| O=C(Cn1nc(C(F)(F)F)cc1C(F)(F)F)N1CCC(c2nc(C#Cc3ccccc3Br)cs2)CC1 [Example I-213] |  | 4.74^[b] |  |
| O=C(Cn1nc(C(F)(F)F)cc1C(F)(F)F)N1CCC(c2nc(C#Cc3c(F)cccc3F)cs2)CC1 [Example I-214] |  | 4.4^[b] |  |
| Cc1cccnc1C#Cc1csc(C2CCN(C(=O)Cn3nc(C(F)(F)F)cc3C(F)(F)F)CC2)n1 [Example I-216] |  | 3.37^[b] |  |

| SMILES | log p (log P (pH2.3); [1]) | log p (log P (pH2.3); [3]) | also measured |
| --- | --- | --- | --- |
| Cc1ccccc1C#Cc1csc(C2CCN(C(=O)Cn3nc(C(F)F)cc3C(F)F)CC2)n1 [Example I-218] |  | 3.99^[b] | log p (log P (pH2.3); [4]): 4.02^[c]; |
| O=C(Cn1nc(C(F)F)cc1C(F)F)N1CCC(c2nc(C#Cc3ccccc3Br)cs2)CC1 [Example I-219] |  | 4.04^[b] | log p (log P (pH2.3); [4]): 4.04^[c]; |
| O=C(Cn1nc(C(F)F)cc1C(F)F)N1CCC(c2nc(C#Cc3c(F)cccc3F)cs2)CC1 [Example I-220] |  | 3.7^[b] | log p (log P (pH2.3); [4]): 3.73^[c]; |
| Cc1cccnc1C#Cc1csc(C2CCN(C(=O)Cn3nc(C(F)F)cc3C(F)F)CC2)n1 [Example I-222] |  | 2.68^[b] | log p (log P (pH2.3); [4]): 2.86^[c]; |
| Cc1noc(C)c1C#Cc1csc(C2CCN(C(=O)Cn3nc(C(F)F)cc3C(F)F)CC2)n1 [Example I-223] |  | 3.09^[b] |  |
| Cc1ccccc1C#Cc1csc(C2CCN(C(=O)Cc3cc(Cl)ccc3Cl)CC2)n1 [Example I-224] |  | 4.91^[b] |  |
| O=C(Cc1cc(Cl)ccc1Cl)N1CCC(c2nc(C#Cc3ccccc3Br)cs2)CC1 [Example I-225] |  | 4.91^[b] |  |
| O=C(Cc1cc(Cl)ccc1Cl)N1CCC(c2nc(C#Cc3c(F)cccc3F)cs2)CC1 [Example I-226] |  | 4.52^[b] |  |
| Cc1cccnc1C#Cc1csc(C2CCN(C(=O)Cc3cc(Cl)ccc3Cl)CC2)n1 [Example I-228] |  | 3.35^[b] | log p (log P (pH2.3); [4]): 3.55^[c] |
| Cc1noc(C)c1C#Cc1csc(C2CCN(C(=O)Cc3cc(Cl)ccc3Cl)CC2)n1 [Example I-229] |  | 3.86^[b] |  |
| Cc1ccc(C)c(CC(=O)N2CCC(c3nc(C#Cc4ccccc4C)cs3)CC2)c1 [Example I-230] |  | 4.75^[b] | log p (log P (pH2.3); [4]): 4.78^[c]; |
| Cc1ccc(C)c(CC(=O)N2CCC(c3nc(C#Cc4ccccc4Br)cs3)CC2)c1 [Example I-231] |  | 4.77^[b] | log p (log P (pH2.3); [4]): 4.8^[c]; |
| Cc1ccc(C)c(CC(=O)N2CCC(c3nc(C#Cc4c(F)cccc4F)cs3)CC2)c1 [Example I-232] |  | 4.36^[b] | log p (log P (pH2.3); [4]): 4.39^[c]; |
| Cc1ccc(C)c(CC(=O)N2CCC(c3nc(C#Cc4c(C)noc4C)cs3)CC2)c1 [Example I-235] |  | 3.67^[b] | log p (log P (pH2.3); [4]): 3.71^[c]; |
| Cc1cccnc1/C=C\c1csc(C2CCN(C(=O)Cn3nc(C(F)(F)F)cc3C(F)(F)F)CC2)n1 [Example I-236] |  | 2.46^[b] |  |
| Cc1ccc(C)c(CC(=O)N2CCC(c3nc(/C=C\c4ccccc4C)cs3)CC2)c1 [Example I-237] |  | 4.86^[b] | log p (log P (pH2.3); [4]): 4.95^[c]; |
| C#Cc1csc(C2CCN(C(=O)Cc3cc(C)ccc3C)CC2)n1 [Example I-238] |  | 2.93^[b]; | log p (log P (pH2.3); [4]): 2.95^[c] |
| C#Cc1csc(C2CCN(C(=O)Cn3nc(C(F)F)cc3C(F)F)CC2)n1 [Example I-239] |  | 2.45^[b] |  |
| Brc1sc(C2CCNCC2)nc1CCc1ccccc1 [II-3, 4-[5-Bromo-4-(2-phenylethyl)-1,3-thiazol-2-yl]piperidine] |  |  | log p (log P (pH2.3); pH 2.3, pH2.3, read-out: log P): 1.72 |
